Assay results: patent publication US20130109734A1 (Metabolex, Inc., priority 2010, published 2013)

molecular target: T1, human GPR120 (Homo sapiens, UniProt Q5NUL3); assay: Intracellular Ca2+ assay in human GPR120 stable cell line (HEK293 co-expressing Gqi5), Flexstation; assay type: cell-based; details: % activity at 5 μM compared to the maximal activity of GW9508 at 6.7 μM (=100%); human GPR120 cells, Ca2+ fluorescence
T1 construct: host or cells: HEK293 cells co-expressing Gqi5
T1 sequence (Q5NUL3 1-361): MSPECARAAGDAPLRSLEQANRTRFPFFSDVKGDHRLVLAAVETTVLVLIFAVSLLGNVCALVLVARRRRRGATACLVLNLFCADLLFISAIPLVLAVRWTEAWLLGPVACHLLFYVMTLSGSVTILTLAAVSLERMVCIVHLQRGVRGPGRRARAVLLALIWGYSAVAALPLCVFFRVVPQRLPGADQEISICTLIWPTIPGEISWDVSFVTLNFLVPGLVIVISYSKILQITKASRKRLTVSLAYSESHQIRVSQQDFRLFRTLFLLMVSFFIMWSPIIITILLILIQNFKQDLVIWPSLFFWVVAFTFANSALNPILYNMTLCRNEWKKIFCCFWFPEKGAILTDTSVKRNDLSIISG
Description: Human GPR120 stable cell line was purchased from Multispan Inc (26219 Eden Landing Road, Hayward, Calif. 94545). This GPR120 cell line was generated in HEK293 cells co-expressing Gqi5. In this cell line, the Flag epitope tag (DYKDDDDK) was fused to the amino terminus of human GPR120 protein.
The concentration of intracellular Ca^2+ was measured as described below. Human GPR120 cells were plated in 96 well plates (Poly-D-Lysine coated black/clear Plate, Greiner Bio-One) at 70,000 cells per well and cultured overnight in conditions of 37° C. and 5% CO2. A Ca^2+assay dye stock solution was prepared by adding 10 mL of assay buffer (HBSS/20 mM HEPES, pH 7.4) to FLIPR Calcium 4 Assay Bulk Kit (Molecular Devices). The 10 mL of Ca^2+ assay dye solution was prepared by further diluting 0.5 mL of Ca^2+ assay dye stock solution with 10 mL of assay buffer. The medium of the cells was removed and immediately 100 μL of the Ca^2+ assay dye solution was dispensed into each well followed by incubation at 37° C. and 5% CO2 for 50 minutes to incorporate the Ca^2+ dye into the cells. The cell plate was then placed in the Flexstation (Molecular Devices) for 20 minutes at 37° C. Compounds were dissolved in 100% DMSO and diluted to desired concentrations with assay buffer and placed in the Flexstation simultaneously with the cell plate for 20 minute incubation at 37° C. prior to reading. Fluorescence intensity was measured immediately following compound addition (25 μL/well) on the Flexstation at an excitation wavelength of 485 nm and an emission wavelength of 525 with 515 nm auto cutoff. The resulting increase in fluorescence intensities corresponds to increases in intracellular Ca^2+ levels.
Compounds were dissolved in 100% DMSO to a concentration of 20 mM to provide stock solutions. To determine activity against human GPR120, compounds were added with human GPR120 stably expressing cells (described above), at eight desired concentrations ranging from 0.00001 to 20 μM, in 96 well plates and fluorescence intensities were measured for 90 seconds with 2-second intervals. An EC50 value (concentration of the GPR120 agonist where 50% of the agonist's maximal activity is observed) was calculated using the changes (Max−Min) of fluorescence intensity.
To determine percent activity for a tested compound, the fluorescence intensity value obtained at a particular concentration were compared to the maximal fluorescence intensity value obtained for reference compound GW9508 (4-[[(3-phenoxyphenyl)methyl]amino]benzene propanoic acid; British Journal of Pharmacology 2006 148, 619-628) or the compound of Example 25. When GW9508 was used as the reference compound, the maximal activity of GW9508 at 6.7 μM was designated as 100% activity. When the compound of Example 25 was used as the reference compound, the maximal activity of the compound of Example 25 at 2.5 μM was designated as 100% activity. Typically, the GW9508 activity reached a maximum at a concentration of approximately 6.7 μM and typically the compound of Example 25 reached a maximum activity at approximately 2.5 μM.

Row | Compound | % Activity (GW9508 Reference Compound)
1 | CC1(C)Cc2c(F)ccc(COc3c(F)cc(C4CC4C(=O)O)cc3F)c2O1 (stereo not shown) [Example 27, 2-(3,5-difluoro-4-((4-fluoro-2,2-dimethyl-2,3-dihydrobenzofuran-7-yl)methoxy)phenyl)cyclopropanecarboxylic acid] | 143.8489%
2 | CC(Cc1ccc(OCc2ccc(F)c3c2OC(C)(C)C3)c(F)c1)C(=O)O (stereo not shown) [Example 29, 3-(3-fluoro-4-((4-fluoro-2,2-dimethyl-2,3-dihydrobenzofuran-7-yl)methoxy)phenyl)-2-methylpropanoic acid] | 133.5%
3 | CC(Cc1ccc(OCc2ccc(F)c3c2OC(C)(C)C3)cc1)C(=O)O (stereo not shown) [Example 30, 3-(4-((4-fluoro-2,2-dimethyl-2,3-dihydrobenzofuran-7-yl)methoxy)phenyl)-2-methylpropanoic acid] | 176.6%
4 | CC1(C)Cc2c(C(F)(F)F)ccc(COc3c(F)cc(C4CC4C(=O)O)cc3F)c2O1 (stereo not shown) [Example 31, 2-(4-((2,2-dimethyl-4-(trifluoromethyl)-2,3-dihydrobenzofuran-7-yl)methoxy)-3,5-difluorophenyl)cyclopropanecarboxylic acid] | 149.5%
5 | CC1(C)Cc2cc(Cl)cc(COc3ccc4c(c3)CCC4CC(=O)O)c2O1 (stereo not shown) [Example 36, 2-(5-((5-chloro-2,2-dimethyl-2,3-dihydrobenzofuran-7-yl)methoxy)-2,3-dihydro-1H-inden-1-yl)acetic acid] | 122.9%
6 | CC1(C)Cc2cc(F)cc(COc3ccc4c(c3)CCC4CC(=O)O)c2O1 (stereo not shown) [Example 37, 2-(5-((5-fluoro-2,2-dimethyl-2,3-dihydrobenzofuran-7-yl)methoxy)-2,3-dihydro-1H-inden-1-yl)acetic acid] | 124.7%
7 | CC(Cc1ccc(COc2cccc3c2OC(C)(C)C3)c(F)c1)C(=O)O (stereo not shown) [Example 44, 3-(4-(((2,2-dimethyl-2,3-dihydrobenzofuran-7-yl)oxy)methyl)-3-fluorophenyl)-2-methylpropanoic acid] | 157.14%
8 | CC1(C)Cc2cc(F)cc(COc3ccc(CCC(=O)O)c(Cl)c3)c2O1 [Example 47, 3-(2-chloro-4-((5-fluoro-2,2-dimethyl-2,3-dihydrobenzofuran-7-yl)methoxy)phenyl)propanoic acid] | 111.18%
9 | COc1cc(OCc2cc(F)cc3c2OC(C)(C)C3)ccc1CCC(=O)O [Example 50, 3-(4-((5-fluoro-2,2-dimethyl-2,3-dihydrobenzofuran-7-yl)methoxy)-2-methoxyphenyl)propanoic acid] | 129.78%
10 | CC1(C)Cc2cc(Cl)cc(COc3ccc(CCC(=O)O)c(F)c3)c2O1 [Example 53, 3-(4-((5-chloro-2,2-dimethyl-2,3-dihydrobenzofuran-7-yl)methoxy)-2-fluorophenyl)-propanoic acid] | 143.19%

Further lines, results first:

Row | % Activity (GW9508 Reference Compound) | Compound
11 | 100.3% | CC1(C)Cc2cccc(COc3c(F)cc(C4CC4C(=O)O)cc3F)c2O1 (stereo not shown) [Example 24, 2-(4-((2,2-dimethyl-2,3-dihydrobenzofuran-7-yl)methoxy)-3,5-difluorophenyl)cyclopropanecarboxylic acid]
12 | 101.8% | CC1(C)Cc2cccc(COc3c(F)cc(CCC(=O)O)cc3F)c2O1 [Example 25, 3-(4-((2,2-dimethyl-2,3-dihydrobenzofuran-7-yl)methoxy)-3,5-difluorophenyl)propanoic acid]
13 | 163.7% | CC(Cc1ccc(OCc2cc(Cl)cc3c2OC(C)(C)C3)cc1Cl)C(=O)O (stereo not shown) [Example 26, 3-(2-chloro-4-((5-chloro-2,2-dimethyl-2,3-dihydrobenzofuran-7-yl)methoxy)phenyl)-2-methylpropanoic acid]
14 | 109.6% | CC(Cc1cc(F)c(OCc2ccc(F)c3c2OC(C)(C)C3)c(F)c1)C(=O)O (stereo not shown) [Example 28, 3-(3,5-difluoro-4-((4-fluoro-2,2-dimethyl-2,3-dihydrobenzofuran-7-yl)methoxy)phenyl)-2-methylpropanoic acid]
15 | 143.1% | CC(Cc1cc(F)c(OCc2ccc(C(F)(F)F)c3c2OC(C)(C)C3)c(F)c1)C(=O)O (stereo not shown) [Example 32, 3-(4-((2,2-dimethyl-4-(trifluoromethyl)-2,3-dihydrobenzofuran-7-yl)methoxy)-3,5-difluorophenyl)-2-methylpropanoic acid]
16 | 142.9517% | CC(Cc1ccc(OCc2ccc(C(F)(F)F)c3c2OC(C)(C)C3)c(F)c1)C(=O)O (stereo not shown) [Example 33, 3-(4-((2,2-dimethyl-4-(trifluoromethyl)-2,3-dihydrobenzofuran-7-yl)methoxy)-3-fluorophenyl)-2-methylpropanoic acid]
17 | 117.9% | CC(Cc1ccc(OCc2ccc(C(F)(F)F)c3c2OC(C)(C)C3)cc1)C(=O)O (stereo not shown) [Example 34, 3-(4-((2,2-dimethyl-4-(trifluoromethyl)-2,3-dihydrobenzofuran-7-yl)methoxy)phenyl)-2-methylpropanoic acid]
18 | 83.43% | CC(Cc1cc(F)c(OCc2cc(Cl)cc3c2OC(C)(C)C3)c(F)c1)C(=O)O (stereo not shown) [Example 38, 3-(4-((5-chloro-2,2-dimethyl-2,3-dihydrobenzofuran-7-yl)methoxy)-3,5-difluorophenyl)-2-methylpropanoic acid]
19 | 95.33% | CC(Cc1cc(F)c(OCc2cccc3c2OC(C)C3C)c(F)c1)C(=O)O (stereo not shown) [Example 40, 3-(4-((2,3-dimethyl-2,3-dihydrobenzofuran-7-yl)methoxy)-3,5-difluorophenyl)-2-methylpropanoic acid]
20 | 116.46% | CC1(C)Cc2cc(Cl)cc(COc3c(F)cc(C4CC4CC(=O)O)cc3F)c2O1 (stereo not shown) [Example 41, 2-(2-(4-((5-chloro-2,2-dimethyl-2,3-dihydrobenzofuran-7-yl)methoxy)-3,5-difluorophenyl)cyclopropyl)acetic acid]
21 | 140.94% | CC(Cc1cc(F)c(OCc2c(F)c(F)cc3c2OC(C)(C)C3)c(F)c1)C(=O)O (stereo not shown) [Example 42, 3-(4-((5,6-difluoro-2,2-dimethyl-2,3-dihydrobenzofuran-7-yl)methoxy)-3,5-difluorophenyl)-2-methylpropanoic acid]
22 | 79.58% | CC(Cc1ccc(OCc2cc(F)cc3c2OCOC3)cc1)C(=O)O (stereo not shown) [Example 45, 3-(4-((6-fluoro-4H-benzo[d][1,3]dioxin-8-yl)methoxy)phenyl)-2-methylpropanoic acid]
23 | 113.55% | Cc1cc(OCc2cc(F)cc3c2OC(C)(C)C3)ccc1CCC(=O)O [Example 46, 3-(4-((5-fluoro-2,2-dimethyl-2,3-dihydrobenzofuran-7-yl)methoxy)-2-methylphenyl)propanoic acid]
24 | 138.97% | CC1(C)Cc2cc(Cl)cc(COc3cc(F)c(CCC(=O)O)c(F)c3)c2O1 [Example 54, 3-(4-((5-chloro-2,2-dimethyl-2,3-dihydrobenzofuran-7-yl)methoxy)-2,6-difluorophenyl)propanoic acid]
25 | 108.51% | COc1cc(CCC(=O)O)c(Br)cc1OCc1cc(F)cc2c1OC(C)(C)C2 [Example 56, 3-(2-bromo-4-((5-fluoro-2,2-dimethyl-2,3-dihydrobenzofuran-7-yl)methoxy)-5-methoxyphenyl)propanoic acid]

same assay, conditions: human GPR120 cells, Ca2+ fluorescence; reference compounds, typical value

Row | concentration at which activity reached a maximum | Compound
26 | approximately 2.5 μM | CC1(C)Cc2cccc(COc3c(F)cc(CCC(=O)O)cc3F)c2O1 [Example 25, 3-(4-((2,2-dimethyl-2,3-dihydrobenzofuran-7-yl)methoxy)-3,5-difluorophenyl)propanoic acid]

same assay, conditions: human GPR120 stably expressing cells, Ca2+ fluorescence (Max-Min), eight concentrations 0.00001 to 20 μM

Row | EC50 | Compound
27 | > 10 µM | CC(Cc1cc(F)c(OCc2cccc3c2OC(C)C3C)c(F)c1)C(=O)O (stereo not shown) [Example 40, 3-(4-((2,3-dimethyl-2,3-dihydrobenzofuran-7-yl)methoxy)-3,5-difluorophenyl)-2-methylpropanoic acid]
28 | > 10 µM | CC1(C)Cc2cc(Cl)cc(COc3c(F)cc(C4CC4CC(=O)O)cc3F)c2O1 (stereo not shown) [Example 41, 2-(2-(4-((5-chloro-2,2-dimethyl-2,3-dihydrobenzofuran-7-yl)methoxy)-3,5-difluorophenyl)cyclopropyl)acetic acid]
